From ChEMBL document CHEMBL1157046, “QSAR modeling of taxane analogues against colon cancer” (Eur J Med Chem, 2010)

Tested on: HCT-116
Test: Cytotoxicity against human HCT116 cells after 72 hrs
Format: functional, cell-based
Conditions: HCT-116, 72 h

| SMILES | IC50 |
| --- | --- |
| CCCC(=O)O[C@@]12CO[C@@H]1C[C@H](O)[C@@]1(C)C(=O)[C@H](OC(C)=O)C3=C(C)[C@@H](OC(=O)[C@H](O)[C@@H](NC(=O)c4ccccc4)c4ccccc4)C[C@@](O)([C@@H](OC(=O)c4ccccc4)[C@H]21)C3(C)C | 1.1 nM |
| CCC(=O)O[C@@]12CO[C@@H]1C[C@H](O)[C@@]1(C)C(=O)[C@H](OC(C)=O)C3=C(C)[C@@H](OC(=O)[C@H](O)[C@@H](NC(=O)c4ccccc4)c4ccccc4)C[C@@](O)([C@@H](OC(=O)c4ccccc4)[C@H]21)C3(C)C | 2 nM |
| CC(=O)O[C@H]1C(=O)[C@@]2(C)[C@H]([C@H](OC(=O)c3ccccc3)[C@]3(O)C[C@H](OC(=O)[C@H](O)[C@@H](NC(=O)c4ccccc4)c4ccccc4)C(C)=C1C3(C)C)[C@]1(OC(=O)C3CCCC3)CO[C@@H]1C[C@@H]2O | 2 nM |
| CC(=O)O[C@H]1C(=O)[C@@]2(C)[C@H]([C@H](OC(=O)c3ccccc3)[C@]3(O)C[C@H](OC(=O)[C@H](O)[C@@H](NC(=O)c4ccccc4)c4ccccc4)C(C)=C1C3(C)C)[C@]1(OC(=O)C(C)C)CO[C@@H]1C[C@@H]2O | 5.01 nM |

Tested on: HT-29
Test: Cytotoxicity against human HT-29 cells
Format: functional, cell-based
Conditions: not given

| SMILES | IC50 |
| --- | --- |
| CC(=O)O[C@H]1C(=O)[C@@]2(C)[C@H]([C@H](OC(=O)c3ccccc3)[C@]34OC(=O)O[C@H]3[C@H](OC(=O)[C@H](O)[C@H](C=C(C)C)NC(=O)C(C)(C)C)C(C)=C1C4(C)C)[C@]1(OC(C)=O)CO[C@@H]1C[C@@H]2O | 2.4 nM |
| CC(=O)O[C@@]12CO[C@@H]1C[C@H](O)[C@@]1(C)C(=O)[C@H](O)C3=C(C)[C@@H](OC(=O)[C@H](O)[C@@H](NC(=O)OC(C)(C)C)C(F)(F)F)C[C@@](O)([C@@H](OC(=O)c4cccc(N=[N+]=[N-])c4)[C@H]21)C3(C)C | 0.708 nM |
| C/C=C/C(=O)O[C@H]1C(=O)[C@@]2(C)[C@H]([C@H](OC(=O)c3ccccc3)[C@]34OC(=O)O[C@H]3[C@H](OC(=O)[C@H](O)[C@H](C=C(C)C)NC(=O)CCCCC)C(C)=C1C4(C)C)[C@]1(OC(C)=O)CO[C@@H]1C[C@@H]2O | 28.2 nM |
| CC(=O)O[C@@]12CO[C@@H]1C[C@H](O)[C@@]1(C)C(=O)[C@H](OC(=O)N(C)C)C3=C(C)[C@@H](OC(=O)[C@H](O)[C@H](C=C(C)C)NC(=O)C(C)(C)C)[C@@H]4OC(=O)O[C@]4([C@@H](OC(=O)c4ccccc4)[C@H]21)C3(C)C | 1.2 nM |
| CC(=O)O[C@@H]1C2=C(C)[C@@H](OC(=O)[C@H](O)[C@@H](NC(=O)OCc3ccccc3)c3ccccc3)C[C@@](O)([C@@H](OC(=O)c3ccccc3)[C@@H]3[C@]4(OC(C)=O)CO[C@@H]4C[C@H](O)[C@@]3(C)[C@H]1O)C2(C)C | 0.0135 nM |
| CCC(C)(C)OC(=O)N[C@@H](c1ccccc1)[C@@H](O)C(=O)O[C@H]1C[C@@]2(O)[C@@H](OC(=O)c3ccccc3)[C@@H]3[C@]4(OC(C)=O)CO[C@@H]4C[C@H](O)[C@@]3(C)[C@@H](O)[C@H](OC(C)=O)C(=C1C)C2(C)C | 0.000776 nM |
| CC(=O)O[C@@H]1C2=C(C)[C@@H](OC(=O)[C@H](O)[C@@H](NC(=O)OC(C)(C)C)c3ccccc3)C[C@@](O)([C@@H](OC(=O)c3ccccc3)[C@@H]3[C@]4(OC(C)=O)CO[C@@H]4C[C@H](O)[C@@]3(C)[C@H]1O)C2(C)C | 0.000186 nM |
| CCC(=O)O[C@H]1C(=O)[C@@]2(C)[C@H]([C@H](OC(=O)c3cccc(N=[N+]=[N-])c3)[C@]3(O)C[C@H](OC(=O)[C@H](O)[C@@H](CC(=O)OC(C)(C)C)C(F)(F)F)C(C)=C1C3(C)C)[C@]1(OC(C)=O)CO[C@@H]1C[C@@H]2O | 0.398 nM |
| C/C=C/C(=O)O[C@H]1C(=O)[C@@]2(C)[C@H]([C@H](OC(=O)c3ccccc3)[C@]34OC(=O)O[C@H]3[C@H](OC(=O)[C@H](O)[C@H](C=C(C)C)NC(=O)C(C)(C)C)C(C)=C1C4(C)C)[C@]1(OC(C)=O)CO[C@@H]1C[C@@H]2O | 1.51 nM |
| CC(=O)O[C@@]12CO[C@@H]1C[C@H](O)[C@@]1(C)C(=O)[C@H](OC(=O)C3CC3)C3=C(C)[C@@H](OC(=O)[C@H](O)[C@H](C=C(C)C)NC(=O)C(C)(C)C)[C@@H]4OC(=O)O[C@]4([C@@H](OC(=O)c4ccccc4)[C@H]21)C3(C)C | 1 nM |
| CC(=O)O[C@@H]1C2=C(C)[C@@H](OC(=O)[C@H](O)[C@@H](NC(=O)NC(C)(C)C)c3ccccc3)C[C@@](O)([C@@H](OC(=O)c3ccccc3)[C@@H]3[C@]4(OC(C)=O)CO[C@@H]4C[C@H](O)[C@@]3(C)[C@H]1O)C2(C)C | 0.00661 nM |
| CC(=O)O[C@@]12CO[C@@H]1C[C@H](O)[C@@]1(C)C(=O)[C@H](O)C3=C(C)[C@@H](OC(=O)[C@H](O)[C@H](CC(C)C)NC(=O)C(C)(C)C)[C@@H]4OC(=O)O[C@]4([C@@H](OC(=O)c4ccccc4)[C@H]21)C3(C)C | 4.17 nM |
| CC(=O)O[C@@]12CO[C@@H]1C[C@H](O)[C@@]1(C)C(=O)[C@H](O)C3=C(C)[C@@H](OC(=O)[C@H](O)[C@H](C=C(C)C)NC(=O)C(C)(C)C)[C@@H]4OC(=O)O[C@]4([C@@H](OC(=O)c4ccccc4)[C@H]21)C3(C)C | 0.501 nM |
| CC(=O)O[C@@H]1C2=C(C)[C@@H](OC(=O)[C@H](O)[C@@H](NC(=O)OCC(C)(C)C)c3ccccc3)C[C@@](O)([C@@H](OC(=O)c3ccccc3)[C@@H]3[C@]4(OC(C)=O)CO[C@@H]4C[C@H](O)[C@@]3(C)[C@H]1O)C2(C)C | 0.00174 nM |
| CCCCCC(=O)N[C@@H](C=C(C)C)[C@@H](O)C(=O)O[C@@H]1C(C)=C2[C@@H](OC(=O)C3CC3)C(=O)[C@@]3(C)[C@H]([C@H](OC(=O)c4ccccc4)[C@@]4(OC(=O)O[C@@H]14)C2(C)C)[C@]1(OC(C)=O)CO[C@@H]1C[C@@H]3O | 15.8 nM |
| C/C=C/[C@H](NC(=O)C(C)(C)C)[C@@H](O)C(=O)O[C@@H]1C(C)=C2[C@@H](OC(C)=O)C(=O)[C@@]3(C)[C@H]([C@H](OC(=O)c4ccccc4)[C@@]4(OC(=O)O[C@@H]14)C2(C)C)[C@]1(OC(C)=O)CO[C@@H]1C[C@@H]3O | 3.02 nM |

| SMILES | IC50 |
| --- | --- |
| CC(=O)O[C@H]1C(=O)[C@@]2(C)[C@H]([C@H](OC(=O)c3ccccc3)[C@]34OC(=O)O[C@H]3[C@H](OC(=O)[C@H](O)[C@@H](NC(=O)C(C)(C)C)c3ccco3)C(C)=C1C4(C)C)[C@]1(OC(C)=O)CO[C@@H]1C[C@@H]2O | 0.603 nM |
| COC(=O)O[C@H]1C(=O)[C@@]2(C)[C@H]([C@H](OC(=O)c3ccccc3)[C@]34OC(=O)O[C@H]3[C@H](OC(=O)[C@H](O)[C@H](C=C(C)C)NC(=O)C(C)(C)C)C(C)=C1C4(C)C)[C@]1(OC(C)=O)CO[C@@H]1C[C@@H]2O | 0.708 nM |
| CC(=O)O[C@@H]1C2=C(C)[C@@H](OC(=O)[C@H](O)[C@@H](NC(=O)OCC(C)C)c3ccccc3)C[C@@](O)([C@@H](OC(=O)c3ccccc3)[C@@H]3[C@]4(OC(C)=O)CO[C@@H]4C[C@H](O)[C@@]3(C)[C@H]1O)C2(C)C | 0.00269 nM |
| CCC[C@H](NC(=O)C(C)(C)C)[C@@H](O)C(=O)O[C@@H]1C(C)=C2[C@@H](OC(C)=O)C(=O)[C@@]3(C)[C@H]([C@H](OC(=O)c4ccccc4)[C@@]4(OC(=O)O[C@@H]14)C2(C)C)[C@]1(OC(C)=O)CO[C@@H]1C[C@@H]3O | 4.79 nM |
| CC(=O)O[C@@]12CO[C@@H]1C[C@H](O)[C@@]1(C)C(=O)[C@H](O)C3=C(C)[C@@H](OC(=O)[C@H](O)[C@@H](NC(=O)C(C)(C)C)c4ccco4)[C@@H]4OC(=O)O[C@]4([C@@H](OC(=O)c4ccccc4)[C@H]21)C3(C)C | 0.603 nM |
| CCC[C@H](NC(=O)C(C)(C)C)[C@@H](O)C(=O)O[C@@H]1C(C)=C2[C@@H](O)C(=O)[C@@]3(C)[C@H]([C@H](OC(=O)c4ccccc4)[C@@]4(OC(=O)O[C@@H]14)C2(C)C)[C@]1(OC(C)=O)CO[C@@H]1C[C@@H]3O | 3.8 nM |
| C/C=C/[C@H](NC(=O)C(C)(C)C)[C@@H](O)C(=O)O[C@@H]1C(C)=C2[C@@H](O)C(=O)[C@@]3(C)[C@H]([C@H](OC(=O)c4ccccc4)[C@@]4(OC(=O)O[C@@H]14)C2(C)C)[C@]1(OC(C)=O)CO[C@@H]1C[C@@H]3O | 1.91 nM |
| CCC(=O)O[C@H]1C(=O)[C@@]2(C)[C@H]([C@H](OC(=O)c3ccccc3)[C@]34OC(=O)O[C@H]3[C@H](OC(=O)[C@H](O)[C@H](C=C(C)C)NC(=O)C(C)(C)C)C(C)=C1C4(C)C)[C@]1(OC(C)=O)CO[C@@H]1C[C@@H]2O | 0.603 nM |
| CC(=O)N[C@@H](c1ccccc1)[C@@H](O)C(=O)O[C@H]1C[C@@]2(O)[C@@H](OC(=O)c3ccccc3)[C@@H]3[C@]4(OC(C)=O)CO[C@@H]4C[C@H](O)[C@@]3(C)[C@@H](O)[C@H](OC(C)=O)C(=C1C)C2(C)C | 0.339 nM |
| CC(=O)O[C@@H]1C2=C(C)[C@@H](OC(=O)[C@H](O)[C@@H](NC(=O)CC(C)(C)C)c3ccccc3)C[C@@](O)([C@@H](OC(=O)c3ccccc3)[C@@H]3[C@]4(OC(C)=O)CO[C@@H]4C[C@H](O)[C@@]3(C)[C@H]1O)C2(C)C | 0.0105 nM |
| CCCCCC(=O)N[C@@H](C=C(C)C)[C@@H](O)C(=O)O[C@@H]1C(C)=C2[C@@H](OC(=O)N(C)C)C(=O)[C@@]3(C)[C@H]([C@H](OC(=O)c4ccccc4)[C@@]4(OC(=O)O[C@@H]14)C2(C)C)[C@]1(OC(C)=O)CO[C@@H]1C[C@@H]3O | 5.13 nM |
| CCOC(=O)N[C@@H](c1ccccc1)[C@@H](O)C(=O)O[C@H]1C[C@@]2(O)[C@@H](OC(=O)c3ccccc3)[C@@H]3[C@]4(OC(C)=O)CO[C@@H]4C[C@H](O)[C@@]3(C)[C@@H](O)[C@H](OC(C)=O)C(=C1C)C2(C)C | 0.00603 nM |
| CC(=O)O[C@H]1C(=O)[C@@]2(C)[C@H]([C@H](OC(=O)c3ccccc3)[C@]34OC(=O)O[C@H]3[C@H](OC(=O)[C@H](O)[C@H](CC(C)C)NC(=O)C(C)(C)C)C(C)=C1C4(C)C)[C@]1(OC(C)=O)CO[C@@H]1C[C@@H]2O | 1.51 nM |
| CC(=O)O[C@@H]1C2=C(C)[C@@H](OC(=O)[C@H](O)[C@@H](NC(=O)c3ccc(C)cc3)c3ccccc3)C[C@@](O)([C@@H](OC(=O)c3ccccc3)[C@@H]3[C@]4(OC(C)=O)CO[C@@H]4C[C@H](O)[C@@]3(C)[C@H]1O)C2(C)C | 0.0138 nM |
| CC(=O)O[C@@H]1C2=C(C)[C@@H](OC(=O)[C@H](O)[C@@H](NC(=O)OC(C)C)c3ccccc3)C[C@@](O)([C@@H](OC(=O)c3ccccc3)[C@@H]3[C@]4(OC(C)=O)CO[C@@H]4C[C@H](O)[C@@]3(C)[C@H]1O)C2(C)C | 0.000955 nM |
